{"source": "patent US12128068B2", "about": "“Compositions and methods for dental mineralization” (The University of Melbourne, priority 2013, dated 2024)", "test": "Remineralization of enamel subsurface lesions (transverse microradiography and densitometric image analysis)", "set-up": "species or system Human", "settings": "1% v/v sodium hypochlorite for 1 min at start of CPP-ACP remineralization, versus CPP-ACP alone", "description": "Human tooth enamel demineralized subsurface lesions were prepared using the method of Reynolds, (1997). J Dent Res 76:1587-1595. The enamel surface was removed by polishing to remove all adsorbed protein. This removed around 50-100 μm of enamel to expose an uncoated, polished enamel surface for the study. […] A 1% w/v CPP-ACP pH 5.0 solution was prepared using Recaldent® [Kraft Foods], a commercial source of CPP-ACP that is prepared as per Example 1 at a pH of 5.0. All blocks were remineralized with the 1% CPP-ACP pH 5 solution for 7 days at 37° C. However, half were exposed to a 1% v/v sodium hypochlorite solution for 1 min at the start of the CPP-ACP remineralization period. In other words, the sodium hypochlorite and CPP-ACP were simultaneously exposed to the subsurface lesion. After remineralization the enamel blocks were embedded, sectioned and subjected to transverse microradiography and densitometric image analysis as previously described by Reynolds (1997) to determine percent mineral content gain (% Remineralization) shown in Table 3."}
{"molecule": "OCl", "note": "[hypochlorite, sodium hypochlorite]", "values": [{"measurement": "increase of the level of remineralization by the CPP-ACP solution", "result": 31, "unit": "%"}]}
